According to patent publication US8609607B2, “Modified defensins and their use” (The United States of America as represented by the …, priority 2002, dated 2013):

Columns and labels:
[1] = tested on: Escherichia coli ATCC43827; assay: radial diffusion assay, antibacterial activity; assay type: cell-based; settings: compared to unmodified HNP-1; 16-256 nM; FIG. 2A
Experimental: (§1) The antibacterial activity of various concentrations of HNP-1 and ADP-ribosyl-HNP-1 (16 nM, 32 nM, 64 nM, 128 nM, 256 nM) on Escherichia coli ATCC43827 (American Type Culture Collection, Rockville, Md.) was evaluated by the radial diffusion assay (Takemura et al., Antimicrob. Agents Chemother. 40: 2280-2284, 1996). Antimicrobial activity was positively correlated with the diameter of a zone cleared of E. coli growth (minus the diameter of the central well (3 mm)).

[2] = tested on: A549 cells; assay: chromium release assay, defensin cytotoxicity; assay type: cell-based; settings: compared to unmodified HNP-1; 1.5-24 μM, 18 hours, 37° C.; FIG. 2B
Experimental: (§2) Chromium (^51Cr)-labeled A549 cells (American Type Culture Collection) were incubated (18 hours, 37° C.) in 100 μl of serum-free RPMI (Gibco Fluids Inc., Rockville, Md.) containing various concentrations of HNP-1, synthetic HNP-1, or ADP-ribosyl-HNP-1 (1.5 μM, 3 μM, 6 μM, 12 μM, 24 μM) to quantify defensin cytotoxicity. Cytotoxicity was positively correlated with the amount of chromium released from lysed cells (Panyutich et al., Am. J. Respir. Cell. Mol. Biol. 12:351-357, 1995). Percent of lysis was calculated as (cpmexp−cpmspont)/(cpmmax−cpmspont)×100 (exp, experimental conditions; max, maximal release; spont, spontaneous release).

[3] = tested on: E. coli; assay: radial diffusion assay, effect of ADP-ribosylated HNP-1 on HNP-1 activity; assay type: cell-based; settings: HNP-1 100 nM incubated 1 hour at 37° C. with 0-800 nM ADP-ribosylated HNP-1; FIG. 3A
Experimental: as §1
HNP-1 (100 nM) was incubated for 1 hour at 37° C. with various concentrations of ADP-ribosylated HNP-1 (0-800 nM) before the initiation of the E. coli radial diffusion assay. The radial diffusion assay was performed as described in Example 4.

[4] = tested on: A549 cells; assay: chromium release assay, effect of ADP-ribosylated HNP-1 on HNP-1 cytotoxic activity; assay type: cell-based; settings: HNP-1 12 μM incubated 1 hour at 37° C. with 0-12 μM ADP-ribosyl-HNP-1; FIG. 3B
Experimental: as §2
HNP-1 (12 μM) was incubated with various concentrations of ADP-ribosyl-HNP-1 (0-12 μM) for 1 hour at 37° C. before the initiation of the chromium release assay. The chromium release assay was performed as described in Example 5. HNP-1 and ADP-ribosyl-HNP-1 (0-12 μM) were included as controls.

[5] = tested on: A549 cells; assay: IL-8 production by A549 cells (indirect ELISA); assay type: cell-based; settings: 12 or 24 hours
Experimental: A549 cells (3×10^4 cells per well) were incubated in a 96-well plate in 200 μl of serum-free RPMI medium (Gibco Fluids Inc) containing ADP-ribosyl-HNP-1 or HNP-1 (0.25, 0.75, 1.5, 3 μM). Culture medium was sampled after 12 or 24 hours of incubation and IL-8 content in the medium was assayed by indirect ELISA (FIGS. 4A and 4B) according to the manufacturer's instructions (R & D System Inc. Minneapolis, Minn.).

[6] = tested on: CD3+ T-cells; assay: T cell chemotaxis assay; assay type: cell-based, human; settings: 0.025 to 25 nM, 4 hours; compared to unmodified HNP; FIG. 4C
Experimental: CD3^+ T-cells were isolated from human peripheral blood prepared by leukapheresis (NIH, Department of Transfusion Medicine, Bethesda, Md.) (Chertov et al, J. Biol. Chem. 271:2935-2940, 1996) and suspended in migration medium (RPMI 1640, 0.5% bovine serum albumin, 25 mM HEPES). Inserts coated with collagen IV (Becton Dickinson Labware, Bedford, Mass.) were placed into 24-well culture plates to form upper and a lower chambers in each well. Upper chambers were wetted with migration medium, then 500 μl of migration medium with or without ADP-ribosyl-HNP-1 or HNP-1 (0.025 to 25 nM) were added to the lower chamber. Cells were added to the upper chamber and plates were incubated at 37° C. in 5% CO2 for 4 hours. Cells incubated in the presence or absence of (macrophage inflammatory protein-1β) MIP-1β (5 ng/ml) were the positive and negative controls, respectively. Lymphocytes that had migrated to the lower chamber were harvested by centrifugation and counted in a hematocytometer. Chemotaxis percentage was calculated as follows: (number of cells migrated to the lower chamber in the experimental conditions−number of cells migrated in the negative control)/(number of cells migrated in the positive control−number of cells migrated in negative control)×100.

ADP-ribosylated HNP-1: HNP-1 (SEQ ID NO:2) mono-ADP-ribosylated by ART-1 with NAD, at arginine 14
antibacterial activity (diameter of zone cleared of E. coli growth) [1]: reduced antibacterial activity | cytotoxicity (lysis of 51Cr-labeled A549 cells) [2]: less cytotoxic than unmodified HNP-1 | effect on antimicrobial/cytotoxic activity of HNP-1, radial diffusion assay [3]: blocked the cytotoxic activity of HNP-1 in a concentration-dependent manner | effect on cytotoxic activity of HNP-1, chromium release assay [4]: blocked the cytotoxic activity of HNP-1 in a concentration-dependent manner | IL-8 release into the medium versus unmodified peptide ([5]; 0.75 μM peptide, P=0.01): significantly higher | IL-8 release into the medium versus unmodified peptide ([5]; 1.5 μM peptide, P=0.01): significantly higher | IL-8 release into the medium versus unmodified peptide ([5]; 3 μM peptide): no differences | ability to recruit T cells (chemotaxis) [6]: retained the ability to recruit T cells at a level that was comparable to unmodified HNP
